Where only a bound is given, the exact number is not on record here.

Experiment [1] has as its target T1, HiBit-BRG1 fusion protein (Homo sapiens, UniProt P51532).
T1 construct: expressed in transfected cells
Description: HiBiT-BRG1 cell-based degradation assay (Nano-Glo HiBiT Lytic Detection, 24 h). The following applies: HeLa cells expressing HiBit-BRG1 and LgBit; for DC50: read-out: BRG1 HiBit Degradation IC50; for Dmax: HeLa, top dose 30 μM, read-out: BRG1 HiBit Degradation Maximum measured. The method, boiled down:
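Degradation is scaled from DMSO-treated cells (0%) to cells given 2 μM of a known BRM/BRG1 degrader (100%). HeLa cells stably carrying HiBiT-BRG1 plus LgBiT (5000/well) were lysed with Nano-Glo HiBiT detection reagent, shaken 10 min at RT, and luminescence read.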
(In general: The HiBiT peptide binds its large partner to form an active luciferase.)

The target in the next experiment is T2, HiBit-BRM fusion protein (Homo sapiens, UniProt P51531).
T2 construct: expressed in transfected cells
T2 sequence (P51531 whole entry, the tested form may be a part): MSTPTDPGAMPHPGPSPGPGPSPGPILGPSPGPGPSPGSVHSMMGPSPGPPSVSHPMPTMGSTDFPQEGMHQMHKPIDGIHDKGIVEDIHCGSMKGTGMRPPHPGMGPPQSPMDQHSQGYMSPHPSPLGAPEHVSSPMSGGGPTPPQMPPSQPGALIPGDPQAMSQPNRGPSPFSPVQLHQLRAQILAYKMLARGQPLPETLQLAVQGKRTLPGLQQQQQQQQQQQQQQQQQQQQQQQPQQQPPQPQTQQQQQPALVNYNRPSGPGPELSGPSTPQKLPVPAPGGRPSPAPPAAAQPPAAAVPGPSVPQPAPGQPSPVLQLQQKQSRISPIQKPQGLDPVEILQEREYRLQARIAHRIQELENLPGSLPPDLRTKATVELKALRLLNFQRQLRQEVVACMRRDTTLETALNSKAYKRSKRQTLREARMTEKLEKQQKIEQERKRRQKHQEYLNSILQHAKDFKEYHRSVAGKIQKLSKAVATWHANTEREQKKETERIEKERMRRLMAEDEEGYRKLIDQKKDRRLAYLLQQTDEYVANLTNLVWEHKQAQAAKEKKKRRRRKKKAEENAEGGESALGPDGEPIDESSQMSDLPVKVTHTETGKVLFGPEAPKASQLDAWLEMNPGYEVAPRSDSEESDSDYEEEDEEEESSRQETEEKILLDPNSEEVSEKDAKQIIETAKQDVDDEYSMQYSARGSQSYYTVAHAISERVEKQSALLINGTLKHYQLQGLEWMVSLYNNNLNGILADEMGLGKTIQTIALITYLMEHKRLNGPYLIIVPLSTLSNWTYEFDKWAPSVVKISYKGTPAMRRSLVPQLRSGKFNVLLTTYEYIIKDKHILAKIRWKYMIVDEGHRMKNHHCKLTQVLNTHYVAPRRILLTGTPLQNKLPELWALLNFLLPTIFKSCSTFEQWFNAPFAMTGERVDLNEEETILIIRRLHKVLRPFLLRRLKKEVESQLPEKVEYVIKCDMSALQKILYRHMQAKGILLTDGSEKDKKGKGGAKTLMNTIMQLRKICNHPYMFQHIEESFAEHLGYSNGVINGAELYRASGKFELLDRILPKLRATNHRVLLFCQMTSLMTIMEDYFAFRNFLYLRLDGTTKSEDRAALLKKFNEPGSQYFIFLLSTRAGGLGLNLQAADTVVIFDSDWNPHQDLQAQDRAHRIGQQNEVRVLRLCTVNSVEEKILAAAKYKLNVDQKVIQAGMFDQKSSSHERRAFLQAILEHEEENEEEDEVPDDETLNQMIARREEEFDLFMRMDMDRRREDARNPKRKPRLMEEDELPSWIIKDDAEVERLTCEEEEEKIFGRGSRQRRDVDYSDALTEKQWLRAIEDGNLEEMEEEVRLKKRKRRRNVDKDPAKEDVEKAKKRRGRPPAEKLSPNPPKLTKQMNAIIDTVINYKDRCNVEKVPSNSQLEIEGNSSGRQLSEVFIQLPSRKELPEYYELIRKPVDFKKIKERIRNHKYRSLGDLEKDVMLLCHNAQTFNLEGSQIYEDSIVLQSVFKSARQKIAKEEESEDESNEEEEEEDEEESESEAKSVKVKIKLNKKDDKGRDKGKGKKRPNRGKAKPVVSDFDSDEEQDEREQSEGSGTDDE
The experiment in a line: HiBiT-BRM cell-based degradation assay (Nano-Glo HiBiT Lytic Detection, 24 h). The conditions noted are these: HeLa cells expressing HiBiT-BRM; for DC50: read-out: BRM HiBit Degradation IC50; for BRM HiBit Degradation Maximum measured: top dose 30 μM. The method, boiled down: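 Residual HiBiT-BRM in a stable HeLa line was measured by Nano-Glo lytic luminescence after 24 h compound exposure (top final dose 30 μM, 3-fold, 10 points, duplicate). Values are % degradation, scaled between DMSO-treated cells and cells given 2 μM of a known BRM/BRG1 degrader.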

T1 sequence (P51532 whole entry, the tested form may be a part): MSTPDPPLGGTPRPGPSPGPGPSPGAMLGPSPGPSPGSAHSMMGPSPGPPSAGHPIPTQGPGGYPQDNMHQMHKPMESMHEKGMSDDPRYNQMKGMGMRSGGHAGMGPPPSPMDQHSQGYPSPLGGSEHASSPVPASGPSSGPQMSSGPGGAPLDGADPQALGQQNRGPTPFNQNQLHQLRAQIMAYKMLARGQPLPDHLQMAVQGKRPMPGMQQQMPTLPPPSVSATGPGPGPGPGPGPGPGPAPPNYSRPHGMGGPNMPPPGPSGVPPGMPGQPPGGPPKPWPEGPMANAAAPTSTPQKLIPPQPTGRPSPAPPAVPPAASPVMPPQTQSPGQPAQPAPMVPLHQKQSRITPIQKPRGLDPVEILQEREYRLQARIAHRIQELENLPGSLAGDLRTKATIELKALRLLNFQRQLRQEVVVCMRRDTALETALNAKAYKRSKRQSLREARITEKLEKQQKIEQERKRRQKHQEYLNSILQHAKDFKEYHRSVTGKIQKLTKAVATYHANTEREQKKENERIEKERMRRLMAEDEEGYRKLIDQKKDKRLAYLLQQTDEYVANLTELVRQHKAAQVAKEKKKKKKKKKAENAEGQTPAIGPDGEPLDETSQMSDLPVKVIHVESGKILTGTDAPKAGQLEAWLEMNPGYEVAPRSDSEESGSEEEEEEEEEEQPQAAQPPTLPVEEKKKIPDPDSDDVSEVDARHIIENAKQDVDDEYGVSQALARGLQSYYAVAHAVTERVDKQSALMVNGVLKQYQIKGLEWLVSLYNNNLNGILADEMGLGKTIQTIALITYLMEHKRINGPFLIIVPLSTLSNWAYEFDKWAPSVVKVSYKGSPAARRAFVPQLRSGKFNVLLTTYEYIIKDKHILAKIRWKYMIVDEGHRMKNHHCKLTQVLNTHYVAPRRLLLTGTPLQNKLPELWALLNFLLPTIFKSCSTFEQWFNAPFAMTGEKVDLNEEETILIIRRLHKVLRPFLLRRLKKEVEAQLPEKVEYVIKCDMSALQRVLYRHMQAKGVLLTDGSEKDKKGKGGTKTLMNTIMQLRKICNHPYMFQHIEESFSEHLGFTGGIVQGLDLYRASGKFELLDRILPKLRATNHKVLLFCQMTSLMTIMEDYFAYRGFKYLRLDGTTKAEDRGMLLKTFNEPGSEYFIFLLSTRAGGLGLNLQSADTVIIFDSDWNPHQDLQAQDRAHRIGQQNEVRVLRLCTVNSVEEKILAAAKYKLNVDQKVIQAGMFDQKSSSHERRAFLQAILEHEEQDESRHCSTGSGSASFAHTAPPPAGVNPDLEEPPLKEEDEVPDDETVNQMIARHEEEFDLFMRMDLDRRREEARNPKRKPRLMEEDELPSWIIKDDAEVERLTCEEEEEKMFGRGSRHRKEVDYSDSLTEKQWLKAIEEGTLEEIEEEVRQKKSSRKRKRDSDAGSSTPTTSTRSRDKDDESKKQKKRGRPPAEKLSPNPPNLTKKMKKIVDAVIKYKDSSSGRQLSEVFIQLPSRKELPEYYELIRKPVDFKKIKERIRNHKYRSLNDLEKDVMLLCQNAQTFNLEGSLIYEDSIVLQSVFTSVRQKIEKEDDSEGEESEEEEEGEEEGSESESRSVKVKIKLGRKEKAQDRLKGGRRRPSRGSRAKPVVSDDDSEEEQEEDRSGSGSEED

Regarding `CS(=O)(=O)n1ccc(C(=O)N[C@@H](COCc2ccc(C(=O)NCCOc3cccc(OCCNc4ccc5c(c4)C(=O)N(C4CCC(=O)NC4=O)C5=O)c3)cc2)C(=O)Nc2nc(-c3ccccc3)cs2)c1` (stereo partly drawn) [Compound 207, N-[2-[3-(2-[[2-(2,6-dioxopiperidin-3-yl)-1,3-dioxoisoindol-5-yl]amino]ethoxy)phenoxy]ethyl]-4-[[(2S)-2-[(1-methanesulfonylpyrrol-3-yl)formamido]-2-[(4-phenyl-1,3-thiazol-2-yl)carbamoyl]ethoxy]methyl]benzamide], in experiment [1], the DC50 lay within 100 to 1000 nM and the Dmax fell in the range of 50 to 75%. Besides, at HiBit-BRM fusion protein, the DC50 lay in the range of 100 to 1000 nM; the “BRM HiBit Degradation Maximum measured” value is “B (‘B’ = Maximum degradation ≥50% and ≤75%)”.
As to `Cc1ncsc1-c1ccc(CNC(=O)[C@@H]2C[C@@H](O)CN2C(=O)[C@@H](NC(=O)CCCCC(=O)NCc2ccc(COC[C@H](NC(=O)c3ccn(S(C)(=O)=O)c3)C(=O)Nc3nc(-c4ccccc4)cs3)cc2)C(C)(C)C)cc1` [Compound 208, N-[(2S)-1-[(2S,4R)-4-hydroxy-2-([[4-(4-methyl-1,3-thiazol-5-yl)phenyl]methyl]carbamoyl)pyrrolidin-1-yl]-3,3-dimethyl-1-oxobutan-2-yl]-N′-[(4-[[(2S)-2-[(1-methanesulfonylpyrrol-3-yl)formamido]-2-[(4-phenyl-1,3-thiazol-2-yl)carbamoyl]ethoxy]methyl]phenyl)methyl]hexanediamide], in experiment [1], the DC50 is more than 10000 nM and the Dmax was less than 50%. Further, on HiBit-BRM fusion protein, the DC50 was more than 10000 nM and the “BRM HiBit Degradation Maximum measured” value is “C (‘C’ = Maximum degradation <50%)”.
With `Cc1ncsc1-c1ccc(CNC(=O)[C@@H]2C[C@@H](O)CN2C(=O)[C@@H](NC(=O)CCCCCCCCCCC(=O)NCc2ccc(COC[C@H](NC(=O)c3ccn(S(C)(=O)=O)c3)C(=O)Nc3nc(-c4ccccc4)cs3)cc2)C(C)(C)C)cc1` [Compound 209, N-[(2S)-1-[(2S,4R)-4-hydroxy-2-([[4-(4-methyl-1,3-thiazol-5-yl)phenyl]methyl]carbamoyl)pyrrolidin-1-yl]-3,3-dimethyl-1-oxobutan-2-yl]-N′-[(4-[[(2S)-2-[(1-methanesulfonylpyrrol-3-yl)formamido]-2-[(4-phenyl-1,3-thiazol-2-yl)carbamoyl]ethoxy]methyl]phenyl)methyl]dodecanediamide], in experiment [1], the DC50 is more than 10000 nM and the Dmax was less than 50%. Besides, on HiBit-BRM fusion protein, the DC50 is more than 10000 nM and the “BRM HiBit Degradation Maximum measured” value was “C (‘C’ = Maximum degradation <50%)”.
Consider `Cc1ncsc1-c1ccc(CNC(=O)[C@@H]2C[C@@H](O)CN2C(=O)[C@@H](NC(=O)CCCCCCC(=O)NCc2ccc(COC[C@H](NC(=O)c3ccn(S(C)(=O)=O)c3)C(=O)Nc3nc(-c4ccccc4)cs3)cc2)C(C)(C)C)cc1` [Compound 210, N-[(2S)-1-[(2S,4R)-4-hydroxy-2-([[4-(4-methyl-1,3-thiazol-5-yl)phenyl]methyl]carbamoyl)pyrrolidin-1-yl]-3,3-dimethyl-1-oxobutan-2-yl]-N′-[(4-[[(2S)-2-[(1-methanesulfonylpyrrol-3-yl)formamido]-2-[(4-phenyl-1,3-thiazol-2-yl)carbamoyl]ethoxy]methyl]phenyl)methyl]octanediamide], for which, in experiment [1], the DC50 was more than 10000 nM and the Dmax is less than 50%. On HiBit-BRM fusion protein, the DC50 was more than 10000 nM and the “BRM HiBit Degradation Maximum measured” value is recorded as “C (‘C’ = Maximum degradation <50%)”.
Consider `Cc1ncsc1-c1ccc(CNC(=O)[C@@H]2C[C@@H](O)CN2C(=O)[C@@H](NC(=O)CCCCCCCCCCCCC(=O)NCc2ccc(COC[C@H](NC(=O)c3ccn(S(C)(=O)=O)c3)C(=O)Nc3nc(-c4ccccc4)cs3)cc2)C(C)(C)C)cc1` [Compound 211, N-[(2S)-1-[(2S,4R)-4-hydroxy-2-([[4-(4-methyl-1,3-thiazol-5-yl)phenyl]methyl]carbamoyl)pyrrolidin-1-yl]-3,3-dimethyl-1-oxobutan-2-yl]-N′-[(4-[[(2S)-2-[(1-methanesulfonylpyrrol-3-yl)formamido]-2-[(4-phenyl-1,3-thiazol-2-yl)carbamoyl]ethoxy]methyl]phenyl)methyl]tetradecanediamide], for which, in experiment [1], the DC50 is more than 10000 nM and the Dmax is less than 50%. Further, at HiBit-BRM fusion protein, the DC50 is more than 10000 nM and the “BRM HiBit Degradation Maximum measured” value is reported as “C (‘C’ = Maximum degradation <50%)”.
As to `CS(=O)(=O)n1ccc(C(=O)N[C@@H](COCc2ccc(CNC(=O)CCCCOc3cccc4c3C(=O)N(C3CCC(=O)NC3=O)C4=O)cc2)C(=O)Nc2nc(-c3ccccc3)cs2)c1` (stereo partly drawn) [Compound 212, 5-[[2-(2,6-dioxopiperidin-3-yl)-1,3-dioxoisoindol-4-yl]oxy]-N-[(4-[[(2S)-2-[(1-methanesulfonylpyrrol-3-yl)formamido]-2-[(4-phenyl-1,3-thiazol-2-yl)carbamoyl]ethoxy]methyl]phenyl)methyl]pentanamide], in experiment [1], the DC50 is more than 10000 nM and the Dmax was less than 50%. On HiBit-BRM fusion protein, the DC50 is more than 10000 nM and the “BRM HiBit Degradation Maximum measured” value is given as “C (‘C’ = Maximum degradation <50%)”.
For the compound `CS(=O)(=O)n1ccc(C(=O)N[C@@H](COCc2ccc(CNC(=O)CCCCCCCOc3cccc4c3C(=O)N(C3CCC(=O)NC3=O)C4=O)cc2)C(=O)Nc2nc(-c3ccccc3)cs2)c1` (stereo partly drawn) [Compound 213, 8-[[2-(2,6-dioxopiperidin-3-yl)-1,3-dioxoisoindol-4-yl]oxy]-N-[(4-[[(2S)-2-[(1-methanesulfonylpyrrol-3-yl)formamido]-2-[(4-phenyl-1,3-thiazol-2-yl)carbamoyl]ethoxy]methyl]phenyl)methyl]octanamide], in experiment [1], the DC50 fell in the range of 100 to 1000 nM and the Dmax lay in the range of 50 to 75%. Also, on HiBit-BRM fusion protein, the DC50 was 100 to 1000 nM; the “BRM HiBit Degradation Maximum measured” value is “B (‘B’ = Maximum degradation ≥50% and ≤75%)”.
As for `CS(=O)(=O)n1ccc(C(=O)N[C@@H](COCc2ccc(CNC(=O)CCCCCCCCCCNc3cccc4c3C(=O)N(C3CCC(=O)NC3=O)C4=O)cc2)C(=O)Nc2nc(-c3ccccc3)cs2)c1` (stereo partly drawn) [Compound 214, 11-[[2-(2,6-dioxopiperidin-3-yl)-1,3-dioxoisoindol-4-yl]amino]-N-[(4-[[(2S)-2-[(1-methanesulfonylpyrrol-3-yl)formamido]-2-[(4-phenyl-1,3-thiazol-2-yl)carbamoyl]ethoxy]methyl]phenyl)methyl]undecanamide], in experiment [1], the DC50 lay in the range of 100 to 1000 nM. Further, at HiBit-BRM fusion protein, the DC50 was in the range of 100 to 1000 nM; the “BRM HiBit Degradation Maximum measured” value was “B (‘B’ = Maximum degradation ≥50% and ≤75%)”.
Take `CS(=O)(=O)n1ccc(C(=O)N[C@@H](COCc2ccc(CNC(=O)CCN3CCN(c4ccc5c(c4)C(=O)N(C4CCC(=O)NC4=O)C5=O)CC3)cc2)C(=O)Nc2nc(-c3ccccc3)cs2)c1` (stereo partly drawn) [Compound 215, (2S)-3-([4-[(3-[4-[2-(2,6-dioxopiperidin-3-yl)-1,3-dioxoisoindol-5-yl]piperazin-1-yl]propanamido)methyl]phenyl]methoxy)-2-[(1-methanesulfonylpyrrol-3-yl)formamido]-N-(4-phenyl-1,3-thiazol-2-yl)propanamide; formic acid]: in experiment [1], the DC50 lay within 100 to 1000 nM and the Dmax was more than 75%. For the same compound, on HiBit-BRM fusion protein, the DC50 lay in the range of 100 to 1000 nM; the “BRM HiBit Degradation Maximum measured” value is “B (‘B’ = Maximum degradation ≥50% and ≤75%)”.
Turning to `CS(=O)(=O)n1ccc(C(=O)N[C@@H](COCc2ccc(CNC(=O)C3CCN(CCOc4ccc5c(c4)C(=O)N(C4CCC(=O)NC4=O)C5=O)CC3)cc2)C(=O)Nc2nc(-c3ccccc3)cs2)c1` (stereo partly drawn) [Compound 216, 1-(2-[[2-(2,6-dioxopiperidin-3-yl)-1,3-dioxoisoindol-5-yl]oxy]ethyl)-N-[(4-[[(2S)-2-[(1-methanesulfonylpyrrol-3-yl)formamido]-2-[(4-phenyl-1,3-thiazol-2-yl)carbamoyl]ethoxy]methyl]phenyl)methyl]piperidine-4-carboxamide; formic acid], in experiment [1], the DC50 is 100 to 1000 nM and the Dmax was more than 75%. For the same compound, on HiBit-BRM fusion protein, the DC50 lay in the range of 100 to 1000 nM and the “BRM HiBit Degradation Maximum measured” value is on record as “A (‘A’ = Maximum degradation >75%)”.
As to `CS(=O)(=O)n1ccc(C(=O)N[C@@H](COCc2ccc(CNC(=O)CCOCCOCCOc3ccc4c(c3)C(=O)N(C3CCC(=O)NC3=O)C4=O)cc2)C(=O)Nc2nc(-c3ccccc3)cs2)c1` (stereo partly drawn) [Compound 217, 3-[2-(2-[[2-(2,6-dioxopiperidin-3-yl)-1,3-dioxoisoindol-5-yl]oxy]ethoxy)ethoxy]-N-[(4-[[(2S)-2-[(1-methanesulfonylpyrrol-3-yl)formamido]-2-[(4-phenyl-1,3-thiazol-2-yl)carbamoyl]ethoxy]methyl]phenyl)methyl]propanamide], in experiment [1], the DC50 lay in the range of 100 to 1000 nM and the Dmax lay in the range of 50 to 75%. At HiBit-BRM fusion protein, the DC50 was in the range of 100 to 1000 nM; the “BRM HiBit Degradation Maximum measured” value is “B (‘B’ = Maximum degradation ≥50% and ≤75%)”.
Turning to `Cc1ncsc1-c1ccc(CNC(=O)[C@@H]2C[C@@H](O)CN2C(=O)[C@@H](NC(=O)CCCCCCCNC(=O)CCCOCC[C@H](NC(=O)c2ccn(S(C)(=O)=O)c2)C(=O)Nc2nc(-c3ccccc3)cs2)C(C)(C)C)cc1` [Compound 218, (2S,4R)-4-hydroxy-1-[(2S)-2-(8-[4-[(3S)-3-[(1-methanesulfonylpyrrol-3-yl)formamido]-3-[(4-phenyl-1,3-thiazol-2-yl)carbamoyl]propoxy]butanamido]octanamido)-3,3-dimethylbutanoyl]-N-[[4-(4-methyl-1,3-thiazol-5-yl)phenyl]methyl]pyrrolidine-2-carboxamide], in experiment [1], the DC50 is more than 10000 nM and the Dmax is less than 50%. On HiBit-BRM fusion protein, the DC50 was more than 10000 nM and the “BRM HiBit Degradation Maximum measured” value is listed as “C (‘C’ = Maximum degradation <50%)”.

These data come from US12662479B2 (Foghorn Therapeutics Inc., priority 2020, dated 2026).
